Assay results from paper PMC5675618, “Identification and validation of FGFR2 peptide for detection of early Barrett's neoplasia” (Oncotarget, 2017).

Key:
[1] = system: QhTERT wild-type cells; experiment: Confocal fluorescence microscopy, binding to wild-type QhTERT cells; format: cell-based, human; details: 1 μM peptide, 10 min at RT, 63X
Source text: All human esophageal specimens were obtained with written, informed patient consent per approval and guidelines of the University of Michigan Institutional Review Board (IRB). Human non-dysplastic Barrett's esophagus (BE) cells immortalized with hTert (QhTERT) were obtained from the American Type Culture Collection (ATCC) and cultured in keratinocyte-serum free medium containing bovine pituitary extract and human recombinant EGF (ThermoFisher #17005042). QhTERT cells with stable expression of FGFR2b or FGFR2c were provided (DGB). We cultured these cells with keratinocyte-serum free medium containing bovine pituitary extract and human recombinant EGF (ThermoFisher #17005042) and added 1 μg/mL of puromycin-dihydrochloride (Invitrogen #A11138-03). All cells were cultured at 37°C in 5% CO2, and were passaged using 0.25% EDTA containing trypsin (Mediatech Inc). A hemocytometer was used to determine cell number. […]
~10^3 QhTERT/wt, QhTERT/FGFR2b, and QhTERT/FGFR2c cells were grown on cover glass to ~80% confluence. […] Confocal fluorescence images were collected with Cy5.5 and DAPI filters (Leica Inverted SP5X 2-Photon FLIM confocal microscopes) using a 63X oil-immersion objective. Fluorescence intensities from 3 cells in each of 3 independent images were quantified using custom Matlab (Mathworks) software.

[2] = Fluorescence spectra of Cy5.5-labeled peptides; format: physicochemical; details: 10 μM in PBS, excitation λex = 671 nm
Source text: We synthesized the 12 amino acid sequence SRRPASFRTARE (black) and attached the fluorophore Cy5.5 (red) via a GGGSK linker (blue) on the C-terminus, hereafter SRR^*-Cy5.5, Figure 1A. Cy5.5 was chosen for photostability and high quantum yield in the near-infrared (NIR) spectrum. We used a linker to prevent steric hindrance of the peptide by the dye. We then used a structural model (1EV2), [24] […] This domain is the same in either isoform FGFR2IIIb or FGFR2IIIc. We also used this model to develop a scrambled sequence SPSRERTFRARA for a control, Figure 1C. This peptide was also labeled with Cy5.5 via a GGGSK linker, hereafter SPS^*-Cy5.5. For SPS^*-Cy5.5, we calculated Et = −277.37. […] We purified SRR^*-Cy5.5 and […] to >97% on HPLC, and measured an experimental mass-to-charge (m/z) ratio on mass spectrometry of 2385.31 for both peptides that agreed with the expected value, Supplementary Figure 3.
Figure 1 Peptide specific for FGFR2 Chemical structure is shown for 12 amino acid (aa) peptide sequence (A) SRRPASFRTARE (SRR^*) found to be specific for FGFR2, and (B) scrambled peptide SPSRERTFRARA (SPS^*) used for control. A Cy5.5 fluorophore (red) is attached via a GGGSK linker (blue) to prevent steric hindrance.

[3] = system: QhTERT cells that express FGFR2c; experiment: Apparent dissociation constant by flow cytometry; format: binding, human; details: 0 to 200 nM in PBS in 25 nM increments, 4°C, 1 hour; mean fluorescence intensity by flow cytometry; non-linear fit R^2 = 0.96; representative of 3 independent experiments
Experimental: We measured the apparent dissociation constant kd for peptide binding to cells to assess binding affinity. The Cy5.5-labeled peptide was serially diluted in PBS at concentrations ranging from 0 to 200 nM in 25 nM increments. QhTERT/FGFR2c cells (~10^5) were incubated with peptide at 4°C for 1 hour, washed with cold PBS, and the mean fluorescence intensities were measured using flow cytometry. The equilibrium dissociation constant kd=1/ka was calculated by performing a least squares fit of the data to the non-linear equation I=(I0+Imaxka[X])/([…]). I0 and Imax are the initial and maximum fluorescence intensities, corresponding to no peptide and at saturation, respectively, and [X] represents the concentration of the […] peptide. Prism 5.0 software (GraphPad Inc) was used to calculate kd.

## SRRPASFRTARE [SRR^*-Cy5.5]
[1]
  cell surface fluorescence signal / binding: minimal signal
[2]
  peak emission λem: 710 nm
[3]
  Kd: 68 nM
